The text below walks through data of patent publication US20260250250A1, “3-(SULPHONYL OR SULFONIMIDOYL)PROP-2-EN-1-YL]-2-OXO-1,2-DIHYDROPYRIDINE-3-CARBOXAMIDE DERIVATIVES” (Flinder Therapeutics B.V., priority 2022, published 2026).

In one assay the test system is NF-κB signaling pathway. In words: Cell-based dual luciferase NF-κB reporter assay (HEK293 cells, TNF stimulated). The settings on record: Homo sapiens, HEK293. The method, boiled down: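 HEK293 cells transfected with Firefly luciferase and NF-κB-response-element NanoLuc plasmids; compounds at 100–0.005 µM in 1% DMSO. Cells stimulated with 2.5 ng/mL TNF 30 min after compound addition. Firefly and NanoLuc activities read after 6 h by Nano-Glo dual-luciferase detection.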
(Reporter assays use an easily measured gene product as a stand-in for the process of interest.)

The target of assay [1] is T1, human E3 ubiquitin-protein ligase RNF31 (HOIP) (Homo sapiens, UniProt Q96EP0).
T1 sequence (Q96EP0 695-1072 limits assumed): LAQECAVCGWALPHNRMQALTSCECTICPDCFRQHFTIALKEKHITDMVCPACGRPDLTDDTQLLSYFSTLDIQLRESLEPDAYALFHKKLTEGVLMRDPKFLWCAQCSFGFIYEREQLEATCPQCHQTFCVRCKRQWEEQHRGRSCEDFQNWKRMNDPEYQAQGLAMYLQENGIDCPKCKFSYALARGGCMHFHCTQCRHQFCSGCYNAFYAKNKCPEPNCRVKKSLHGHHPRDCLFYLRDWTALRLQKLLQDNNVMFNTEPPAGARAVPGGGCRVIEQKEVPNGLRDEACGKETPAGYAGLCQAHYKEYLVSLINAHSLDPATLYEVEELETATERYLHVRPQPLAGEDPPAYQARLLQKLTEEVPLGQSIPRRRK
In words: Cell-free HTRF-based HOIP inhibition assay. In kind it is biochemical. The method, boiled down:
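HTRF read (ex 337 nm; em 665 and 620 nm) after a 2.5 h, 25° C. ubiquitination step started by adding E2 plus substrates. Before that, E. coli-expressed human HOIP fragment and E1 were incubated 1 h at 25° C. with compound at 100-0.005 μM, 1% DMSO final.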
(In general: In TR-FRET formats the signal depends on donor and acceptor labels being close together.)

The test system of assay [2] is bladder carcinoma RT4 cell line. The experiment in a line: TNF-α-induced cytotoxicity assay (CellTiter-Glo viability). Conditions: Homo sapiens, RT-4, 72 h. It is filed as cell-based. The method, boiled down: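 RT4 bladder carcinoma cells, 1000 per well, stimulated with 1.25 ng/mL TNFα together with compound for 72 h at 37° C., 5% CO2. Viability read by CellTiter-Glo luminescence, proportional to cellular ATP, as a measure of HOIP-dependent cytotoxicity.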

As to `O=C(NC/C=C/S(=O)(=O)c1ccc(F)cc1F)c1cc2c([nH]c1=O)CCC2` [Example 42, N-[(2E)-3-(2,4-difluorobenzenesulfonyl)prop-2-en-1-yl]-2-oxo-1H,2H,5H,6H,7H-cyclopenta[b]pyridine-3-carboxamide], the IC50 was at most 10000 nM in the assay with NF-κB signaling pathway, at most 1000 nM in assay [1] and at most 1000 nM in assay [2].

Consider `CC(C)(C)OC(=O)N1CCc2[nH]c(=O)c(C(=O)NC/C=C/S(=O)(=O)c3ccccc3F)cc2C1` [Example 22, tert-butyl 3-{[(2E)-3-(2-fluorobenzenesulfonyl)prop-2-en-1-yl]carbamoyl}-2-oxo-1,2,5,6,7,8-hexahydro-1,6-naphthyridine-6-carboxylate], for which the IC50 in the assay on NF-κB signaling pathway is at most 1000 nM; in assay [1] it was at most 100 nM; in assay [2] it was at most 1000 nM.

In the case of `O=C(NC/C=C/S(=O)(=O)c1ccccc1)c1cc2c([nH]c1=O)CCCCC2` [Example 38, N-[(2E)-3-(benzenesulfonyl)prop-2-en-1-yl]-2-oxo-1H,2H,5H,6H,7H,8H,9H-cyclohepta[b]pyridine-3-carboxamide], the concentration for half-maximal inhibition (IC50) (in the assay with NF-κB signaling pathway; in assay [1]; in assay [2]) was at most 1000 nM in each case.

`O=C(NC/C=C/S(=O)(=O)c1ccc(Cl)cc1)c1cc2c([nH]c1=O)CCN(C(=O)NCC1CC1)C2` [Example 100, N3-[(2E)-3-(4-chlorobenzenesulfonyl)prop-2-en-1-yl]-N6-(cyclopropylmethyl)-2-oxo-1,2,5,6,7,8-hexahydro-1,6-naphthyridine-3,6-dicarboxamide]: the figures for the IC50 (in the assay with NF-κB signaling pathway; in assay [1]; in assay [2]) were at most 100000 nM, at most 1000 nM and at most 100000 nM, respectively.

For `O=C(NC/C=C/S(=O)(=O)c1ccccc1)c1cc2c([nH]c1=O)CCN(C(=O)C13CCC(CC1)C3)C2` [Example 110, N-[(2E)-3-(benzenesulfonyl)prop-2-en-1-yl]-6-{bicyclo[2.2.1]heptane-1-carbonyl}-2-oxo-1,2,5,6,7,8-hexahydro-1,6-naphthyridine-3-carboxamide], the figures for the IC50 (with NF-κB signaling pathway; in assay [1]; in assay [2]) were at most 10000 nM, at most 1000 nM and at most 10000 nM, respectively.

On to `O=C(NC/C=C/S(=O)(=O)c1ccccc1)c1cc2c([nH]c1=O)CCN(C(=O)CC1CC1)C2` [Example 117, N-[(2E)-3-(benzenesulfonyl)prop-2-en-1-yl]-6-(2-cyclopropylacetyl)-2-oxo-1,2,5,6,7,8-hexahydro-1,6-naphthyridine-3-carboxamide], for which the IC50 in the assay on NF-κB signaling pathway is at most 100000 nM; in assay [1] it was at most 1000 nM; in assay [2] it was at most 100000 nM.

Take `Cc1ccc(S(=N)(=O)/C=C/CNC(=O)c2cc3c([nH]c2=O)CCCC3)cc1C` (stereo not drawn) [Example 58, N-[(2E)-3-[(3,4-dimethylphenyl)(imino)oxo-λ^6-sulfanyl]prop-2-en-1-yl]-2-oxo-1,2,5,6,7,8-hexahydroquinoline-3-carboxamide]: the IC50 with NF-κB signaling pathway was at most 1000 nM; in assay [1] it was at most 100 nM; in assay [2] it was at most 1000 nM.

For the compound `N#Cc1ccc(S(=O)(=O)/C=C/CNC(=O)c2cc3c([nH]c2=O)CCCC3)cc1` [Example 56, N-[(2E)-3-(4-cyanobenzenesulfonyl)prop-2-en-1-yl]-2-oxo-1,2,5,6,7,8-hexahydroquinoline-3-carboxamide], the results for the IC50 (in the assay with NF-κB signaling pathway; in assay [1]; in assay [2]) were at most 100 nM, at most 100 nM and at most 1000 nM, respectively.

In the case of `CC(C)C1CCc2[nH]c(=O)c(C(=O)NC/C=C/S(=O)(=O)c3ccccc3)cc2C1` (stereo not drawn) [Example 46, N-[(2E)-3-(benzenesulfonyl)prop-2-en-1-yl]-2-oxo-6-(propan-2-yl)-1,2,5,6,7,8-hexahydroquinoline-3-carboxamide], the IC50 (in the assay on NF-κB signaling pathway; in assay [1]; in assay [2]) was at most 1000 nM in each case.

`O=C(NC/C=C/S(=O)(=O)c1ccc(Cl)cc1)c1cc2c([nH]c1=O)CCN(C(=O)OCC(F)(F)F)C2` [Example 97, 2,2,2-trifluoroethyl 3-{[(2E)-3-(4-chlorobenzenesulfonyl)prop-2-en-1-yl]carbamoyl}-2-oxo-1,2,5,6,7,8-hexahydro-1,6-naphthyridine-6-carboxylate]: the values for the half-inhibitory concentration (IC50) (in the assay with NF-κB signaling pathway; in assay [1]; in assay [2]) were at most 1000 nM, at most 100 nM and at most 10000 nM, respectively.

As for `O=C(NC/C=C/S(=O)(=O)c1ccccc1F)c1cc2c([nH]c1=O)CCCC2` [Example 24, N-[(2E)-3-(2-fluorobenzenesulfonyl)prop-2-en-1-yl]-2-oxo-1,2,5,6,7,8-hexahydroquinoline-3-carboxamide], the 50% inhibitory concentration (IC50) in the assay with NF-κB signaling pathway was at most 1000 nM; in assay [1] it was at most 100 nM; in assay [2] it was at most 1000 nM.

As to `O=C(NC/C=C/S(=O)(=O)c1ccccc1)c1cc2c([nH]c1=O)CCN(C(=O)C1CC1)C2` [Example 109, N-[(2E)-3-(benzenesulfonyl)prop-2-en-1-yl]-6-cyclopropanecarbonyl-2-oxo-1,2,5,6,7,8-hexahydro-1,6-naphthyridine-3-carboxamide], the concentration for half-maximal inhibition (IC50) is at most 100000 nM in the assay with NF-κB signaling pathway, at most 1000 nM in assay [1] and at most 100000 nM in assay [2].

Take `O=C(NC/C=C/S(=O)(=O)c1ccccc1)c1cc(-c2ccccc2)c[nH]c1=O` [Example 12, N-[(2E)-3-(benzenesulfonyl)prop-2-en-1-yl]-2-oxo-5-phenyl-1,2-dihydropyridine-3-carboxamide]: the half-inhibitory concentration (IC50) was at most 10000 nM in the assay with NF-κB signaling pathway, at most 1000 nM in assay [1] and at most 10000 nM in assay [2].

Take `N=S(=O)(/C=C/CNC(=O)c1cc2c([nH]c1=O)CCC(F)(F)C2)c1ccc(F)cc1` (stereo not drawn) [Example 59, 6,6-difluoro-N-[(2E)-3-[(4-fluorophenyl)(imino)oxo-λ^6-sulfanyl]prop-2-en-1-yl]-2-oxo-1,2,5,6,7,8-hexahydroquinoline-3-carboxamide]: the IC50 was at most 10000 nM with NF-κB signaling pathway, at most 1000 nM in assay [1] and at most 1000 nM in assay [2].

In the case of `COc1ccc(S(=N)(=O)/C=C/CNC(=O)c2cc3c([nH]c2=O)CCC(C)C3)cc1F` (stereo not drawn) [Example 142, N-[(2E)-3-[(3-fluoro-4-methoxyphenyl)(imino)oxo-λ^6-sulfanyl]prop-2-en-1-yl]-6-methyl-2-oxo-1,2,5,6,7,8-hexahydroquinoline-3-carboxamide], the half-inhibitory concentration (IC50) (with NF-κB signaling pathway; in assay [1]; in assay [2]) was at most 1000 nM throughout.

Turning to `COc1ccc(S(=N)(=O)/C=C/CNC(=O)c2cc3c([nH]c2=O)CCC(C(C)(C)C)C3)cc1F` (stereo not drawn) [Example 148, 6-tert-butyl-N-[(2E)-3-[(3-fluoro-4-methoxyphenyl)(imino)oxo-A*-sulfanyl]prop-2-en-1-yl]-2-oxo-1,2,5,6,7,8-hexahydroquinoline-3-carboxamide], the concentration for half-maximal inhibition (IC50) (in the assay on NF-κB signaling pathway; in assay [1]; in assay [2]) was at most 1000 nM in each case.

For `[2H]C([2H])(/C=C/S(=O)(=O)c1ccccc1)NC(=O)c1cc2c([nH]c1=O)CCCC2` [Example 53, N-[(2E)-3-(benzenesulfonyl)(1,1-^2H2)prop-2-en-1-yl]-2-oxo-1,2,5,6,7,8-hexahydroquinoline-3-carboxamide], the IC50 (with NF-κB signaling pathway; in assay [1]; in assay [2]) was at most 1000 nM throughout.

In the case of `O=C(NC/C=C/S(=O)(=O)c1ccc(C2CC2)cc1)c1cc2c([nH]c1=O)CCCC2` [Example 55, N-[(2E)-3-(4-cyclopropylbenzenesulfonyl)prop-2-en-1-yl]-2-oxo-1,2,5,6,7,8-hexahydroquinoline-3-carboxamide], the half-inhibitory concentration (IC50) in the assay on NF-κB signaling pathway is at most 1000 nM; in assay [1], at most 100 nM; in assay [2] it was at most 1000 nM.

Regarding `COc1ccc(S(=N)(=O)/C=C/CNC(=O)c2cc3c([nH]c2=O)CCCC3)cc1C` (stereo not drawn) [Example 137, N-[(2E)-3-[imino(4-methoxy-3-methylphenyl)oxo-λ^6-sulfanyl]prop-2-en-1-yl]-2-oxo-1,2,5,6,7,8-hexahydroquinoline-3-carboxamide], the half-inhibitory concentration (IC50) (with NF-κB signaling pathway; in assay [1]; in assay [2]) was at most 1000 nM throughout.

With `O=C(NC/C=C/S(=O)(=O)c1cccc(F)c1)c1cc2c([nH]c1=O)CCCC2` [Example 39, N-[(2E)-3-(3-fluorobenzenesulfonyl)prop-2-en-1-yl]-2-oxo-1,2,5,6,7,8-hexahydroquinoline-3-carboxamide], the IC50 with NF-κB signaling pathway was at most 1000 nM; in assay [1], at most 100 nM; in assay [2], at most 1000 nM.

As to `COc1ccc(S(=N)(=O)/C=C/CNC(=O)c2cc3c([nH]c2=O)CCOC3)cc1F` (stereo not drawn) [Example 145, N-[(2E)-3-[(3-fluoro-4-methoxyphenyl)(imino)oxo-λ^6-sulfanyl]prop-2-en-1-yl]-2-oxo-1H,2H,5H,7H,8H-pyrano[4,3-b]pyridine-3-carboxamide], the IC50 in the assay on NF-κB signaling pathway was at most 100000 nM; in assay [1], at most 1000 nM; in assay [2], at most 10000 nM.

With `O=C(NC/C=C/S(=O)(=O)c1ccccc1)c1cc2c([nH]c1=O)CCN(Cc1cccnc1)C2` [Example 104, N-[(2E)-3-(benzenesulfonyl)prop-2-en-1-yl]-2-oxo-6-[(pyridin-3-yl)methyl]-1,2,5,6,7,8-hexahydro-1,6-naphthyridine-3-carboxamide], the IC50 is at most 10000 nM with NF-κB signaling pathway, at most 1000 nM in assay [1] and at most 10000 nM in assay [2].

As usually defined, the IC50 is the midpoint of a concentration-inhibition curve. Read a high IC50 as weaker potency.
